Results published in US20210137829A1, “TOPICAL DELIVERY SYSTEMS FOR ACTIVE COMPOUNDS” (Yissum Research Development Company of the Hebrew …, priority 2017, published 2021).

What was measured:
[1] = Water dilution of the oily phase; format: physicochemical; conditions: oily phase loaded with active; un-loaded phase separates above 50 wt % water
Method: 2 wt % DCF-Na loaded oily composition which is substantially devoid of water (i.e. a concentrate) was prepared according to the process described above. The un-diluted oily composition was constituted by self-assembled oil-solvated clusters or short domains of surfactants, which differ from the classical reverse micelles. These concentrates are dilutable by any suitable diluent, for example by purified water, to form a diluted delivery system.
It was noted that the oily carrier, i.e. the oily composition without DCF-Na, could not be fully diluted.

[2] = Self-diffusion NMR (SD-NMR); format: physicochemical
Method: In order to characterize the structure of the oily domains, self-diffusion NMR (SD-NMR) analysis was carried out. SD-NMR analysis provides an indication on the location of each component within the structure, by calculating the diffusion coefficient of each component in the system.
SD-NMR measurements were performed with a Bruker AVII 500 spectrometer equipped with GREAT 1/10 gradients, a 5 mm BBO and a 5 mm BBI probe, both with a z-gradient coil and with a maximum gradient strength of 0.509 and 0.544 T m^−1, respectively. Diffusion was measured using an asymmetric bipolar longitudinal eddy-current delay (bpLED) experiment, or and asymmetric bipolar stimulated echo (known as one-shot) experiment with convection compensation and an asymmetry factor of 20%, ramping the strongest gradient from 2% to 95% of maximum strength in 32 steps. The spectrum was processed with the Bruker TOPSPIN software. NMR spectra were recorded at 25±0.2° C. The components were identified by their chemical shift in 1H NMR.

Dilutability of the oily phase with water [1]: fully dilutable up to 90 wt % | Diffusion coefficient Dx of DCF-Na ([2]; 2 wt % DCF-Na formulation, FIGS. 11A-11B): 0.1×10^−11 m^2/sec
SMILES: O=C([O-])Cc1ccccc1Nc1c(Cl)cccc1Cl.[Na+] [DCF-Na, diclofenac sodium]
Diffusion coefficient of DCF-Na, gelled vs non-viscosified ([2]; 80 wt % water, 0.75 wt % gellant): lower in the gelled formulation than in the non-viscosified system
